Data set [1] concerns Candida albicans (azole drug-resistant strain) R358. Put plainly: MIC assay (CLSI M27-A3), Candida albicans azole drug-resistant strain R358. Format: cell-based. Conditions: second batch. How it is done: (§1) After a test compound was serially diluted, an MIC (minimum inhibitory concentration) assay was performed on the standard Candida strain and an MEC (minimum effective concentration) assay on the standard Aspergillus strain. The MIC assay was performed according to the guidelines of the Clinical and Laboratory Standards Institute (CLSI M27-A3) and the MEC assay according to the guidelines of the Clinical and Laboratory Standards Institute (CLSI M38-A2).
(§2) The frozen strain was passaged at least twice, and a single colony was picked and resuspended in normal saline or sterile water in a tube. The suspension was vortexed and adjusted to 0.5 McF (1×10^6 to 5×10^6 CFU/mL) using a spectrophotometer at wavelength 530 nm. The suspension was 50-fold diluted with normal saline and then 20-fold diluted with 1×RPMI 1640 broth (1×10^3 to 5×10^3 CFU/mL). 10 μL of the suspension was applied to an SDA plate for colony counting, with a range from about 10 to 50 single colonies.
(§3) At this time, the bacterium concentration in each well should be 0.5×10^3 to 2.5×10^3 CFU/mL.
(§4) For echinocandin drugs, Aspergillus was incubated at 28° C. for 21-26 h, and then the MEC results were read.
(§5) Yeast-type fungi: A disposable sealing film was applied to the 96-well plate, and the mixture was well mixed by shaking. Observation was performed through a plate reader with the naked eye. Comparisons were made to the growth control, and the minimum compound concentration corresponding to ≥50% growth inhibition was defined as MIC. Pictures were taken and saved using an automatic plate reader.

Data set [2] has as its system Candida albicans ATCC 90028. Nature of the data set: MIC assay (CLSI M27-A3), Candida albicans ATCC 90028. Format: cell-based. Particulars: second batch; for MIC: Candida albicans, ATCC90028. How it is done:
as §1, §2
At this time, the bacterium concentration in each well should be 0.5×10^3 to 2.5×10^3 CFU/mL. […]
as §5

In data set [3] the test system is Meyerozyma guilliermondii ATCC 6260. Put plainly: MIC assay (CLSI M27-A3), Meyerozyma guilliermondii ATCC 6260. Format: cell-based. Particulars: first batch, 24 h, 35° C. On the procedure: as §1, §2, §3, §4, §5
Data set [4] can be described thus: Pharmacokinetic study after single intravenous injection in SD rats. Type of data set: in vivo. Conditions: 10 mg/kg single intravenous injection. On the procedure: (§6) 12 SD rats were divided into 2 groups of 6 (half are male and half female). […] The body weights were measured once before administration. Administration was performed by single intravenous injection for 20 min per animal. PK measurement was performed once before administration and 5 min, 30 min, 1 h, 4 h, 8 h, 24 h, 48 h, 72 h and 96 h after administration. A histamine assay was performed once before administration and 30 min, 4 h, 8 h and 24 h after administration.

The subject of data set [5] is Candida albicans ATCC 44858. Nature of the data set: MIC assay (CLSI M27-A3), Candida albicans ATCC 44858. Format: cell-based. Particulars: second batch. On the procedure:
as §1, §2, §3, §4, §5

Data set [6] relates to Candida albicans ATCC 90029. Nature of the data set: MIC assay (CLSI M27-A3), Candida albicans ATCC 90029. Format: cell-based. Conditions: first batch, 24 h, 35° C., ≥50% growth inhibition. On the procedure:
as §1, §2, §3, §4, §5

In data set [7] the test system is Candida albicans (azole drug-resistant strain) R357. Nature of the data set: MIC assay (CLSI M27-A3), Candida albicans azole drug-resistant strain R357. Format: cell-based. Particulars: second batch. How it is done:
as §1, §2, §3, §4, §5

Data set [8] has as its system Candida glabrata ATCC 36583. Put plainly: MIC assay (CLSI M27-A3), Candida glabrata ATCC 36583. Format: cell-based. Particulars: second batch. How it is done:
as §1, §2, §3, §4, §5

Data set [9] in a line: Plasma histamine assay after single intravenous injection in SD rats. Type of data set: in vivo. How it is done:
as §6

Data set [10] relates to Candida tropicalis ATCC 750. Put plainly: MIC assay (CLSI M27-A3), Candida tropicalis ATCC 750. Type of data set: cell-based. Particulars: first batch, 24 h, 35° C. How it is done:
as §1, §2, §3, §4, §5

In data set [11] the test system is Candida tropicalis (amphotericin-resistant strain) ATCC 200956. Nature of the data set: microbe, parasite or virus in culture. Format: cell-based. How it is done: as §1, §2, §3, §4, §5
For a further data set, the system named is Candida krusei ATCC 6258. Put plainly: MIC assay (CLSI M27-A3), Candida krusei ATCC 6258. Format: cell-based. How it is done: as §1, §2, §3, §4, §5
In data set [12] the test system is Candida parapsilosis ATCC 22019. Put plainly: MIC assay (CLSI M27-A3), Candida parapsilosis ATCC 22019. Type of data set: cell-based. On the procedure: as §1, §2, §3, §4, §5
Data set [13] is described as follows: General state observation after single intravenous injection in SD rats. Type of data set: in vivo. Conditions: 10 mg/kg single intravenous injection. How it is done: as §6
For data set [14], the system named is Aspergillus flavus ATCC 28539. Nature of the data set: MEC assay (CLSI M38-A2), Aspergillus flavus ATCC 28539. Type of data set: cell-based. Particulars: first batch; 28° C., 21-26 h. How it is done:
The MIC assay was performed according to the guidelines of the Clinical and Laboratory Standards Institute (CLSI M27-A3) and the MEC assay according to the guidelines of the Clinical and Laboratory Standards Institute (CLSI M38-A2).
Colonies on the plate were covered with about 1 mL of 0.85% normal saline or sterile water (polysorbate 20 was added at a final concentration of 0.1%-0.01%). […] The homogeneous upper layer of the suspension was transferred to a new sterile tube, which was then sealed and vortexed for 15 s (be careful as the suspension may produce an aerosol when the cover is removed). The concentration of the suspension was adjusted until an OD value of 0.09-0.13 was achieved using a spectrophotometer at 530 nm. […] 100 μL of sample was added to each well of the 96-well plate within 2 h after dilution (the final spore concentration in the susceptibility testing plate was at 0.4×10^4 to 5×10^4 CFU/mL).
Aspergillus: For echinocandin drugs, comparisons were made to the growth control under a plate reader, and the minimum drug concentration that could cause the hyphae to form small, round, compact hyphal particles was defined as MEC. For accurate determination of MEC values, the plate must not be vortexed before reading.

Data set [15] deals with Candida glabrata ATCC 15126. Nature of the data set: MIC assay (CLSI M27-A3), Candida glabrata ATCC 15126. Format: cell-based. Particulars: first batch; 24 h, 35° C.; ≥50% growth inhibition. How it is done: as §1, §2, §3, §4, §5
Setting [16] is: first batch, 24 h, 35° C., quality control strain.

The record followed here is patent publication US12466856B2, “Echinocandin analogues and preparation method therefor” (SHANGHAI SENHUI MEDICINE CO., LTD., priority 2019, dated 2025).

Where two headings read alike, the source gives them in different places.

Take `CCCCCOc1ccc(-c2ccc(-c3ccc(C(=O)N[C@H]4C[C@@H](O)[C@@H](OC[C@H]5CCC[N+]5(C)C)NC(=O)[C@@H]5[C@@H](O)[C@@H](C)CN5C(=O)[C@H]([C@@H](C)O)NC(=O)[C@H]([C@H](O)[C@@H](O)c5ccc(O)cc5)NC(=O)[C@@H]5C[C@@H](O)CN5C(=O)[C@H]([C@@H](C)O)NC4=O)cc3)cc2)cc1` [Example 13]: the MIC in data set [1] (Candida albicans, read-out: MIC, Candida albicans (azole drug-resistant strain) R358) came to 0.25 µg/mL; in [2] (24 h, 35° C., read-out: MIC, Candida albicans ATCC 90028), 0.25 µg/mL; in data set [2] (+ 50% human serum, read-out: MIC, Candida albicans + 50% human serum ATCC 90028), 0.25 µg/mL; in [3] (Meyerozyma guilliermondii, ATCC6260, read-out: MIC, Meyerozyma guilliermondii ATCC 6260) it was 1 µg/mL; in data set [5] (Candida albicans, ATCC44858, read-out: MIC, Candida albicans ATCC 44858), 0.25 µg/mL; in [6] (Candida albicans, ATCC90029, read-out: MIC, Candida albicans ATCC 90029), 0.031 µg/mL. The MIC in data set [7] (Candida albicans, read-out: MIC, Candida albicans (azole drug-resistant strain) R357) was 0.5 µg/mL; in [8] (Nakaseomyces glabratus, ATCC36583, read-out: MIC, Candida glabrata ATCC 36583), 0.5 µg/mL; in data set [10] (Candida tropicalis, ATCC750, read-out: MIC, Candida tropicalis ATCC 750), 0.016 µg/mL; in [11] (Candida tropicalis, ATCC200956, read-out: MIC, Candida tropicalis (amphotericin-resistant strain) ATCC 200956), 0.25 µg/mL; with Candida krusei ATCC 6258 (Pichia kudriavzevii, ATCC6258, 24 h, read-out: MIC, Candida krusei ATCC 6258) it was 0.047 µg/mL; in data set [12] (Lodderomyces parapsilosis, ATCC22019, 24 h, read-out: MIC, Candida parapsilosis ATCC 22019), 1 µg/mL. Further, the MRTIV in [4] (female SD rats) was determined as 34.6 h; in data set [4] (male SD rats), 37.1 h. Further, the “ability to induce increases in the histamine level in rats” value in [9] (same dose (10 mg/kg), single intravenous injection, versus rezafungin acetate) is “significantly lower than that of rezafungin acetate”.
Rezafungin acetate: the “MIC, Candida albicans (azole drug-resistant strain) R358” value in [1] amounted to 0.25 µg/mL. For the same molecule, the general state observation entry in data set [13] is “transient slight decrease in activity”. Further, the “MEC, Aspergillus flavus ATCC 28539” value in data set [14] was 0.031 µg/mL. Further, the “MIC, Candida albicans ATCC 90028” value in [2] (24 h, 35° C.) came to 0.25 µg/mL. For the same molecule, in data set [2] (+ 50% human serum), the “MIC, Candida albicans + 50% human serum ATCC 90028” value came to 0.25 µg/mL. Further, in data set [3], the “MIC, Meyerozyma guilliermondii ATCC 6260” value came out at 2 µg/mL. In data set [15], the “MIC, Candida glabrata ATCC 15126” value is 0.125 µg/mL. In [4] (female SD rats), this molecule displayed an AUC0-96 of 205.8 µg·h/mL, an AUC0-inf of 227.2 µg·h/mL, a CL of 0.8 mL/min/kg and a Cmax of 8600 ng/mL. In data set [4] (female SD rats), this molecule came in with an MRTIV of 39.1 h, a T1/2 of 27.9 h and a VdSS of 1.8 L/kg. In [4] (male SD rats), this molecule yielded an AUC0-96 of 190.5 µg·h/mL, an AUC0-inf of 212.1 µg·h/mL, a CL of 0.8 mL/min/kg and a Cmax of 7800 ng/mL. In data set [4] (male SD rats), this molecule returned an MRTIV of 38.4 h, a T1/2 of 28.0 h and a VdSS of 1.8 L/kg. The “MIC, Candida albicans ATCC 44858” value in data set [5] stood at 0.25 µg/mL. Further, in [6], the “MIC, Candida albicans ATCC 90029” value was 0.125 µg/mL. Besides, the “MIC, Candida albicans (azole drug-resistant strain) R357” value in data set [7] came to 0.25 µg/mL. In addition, in data set [8], the “MIC, Candida glabrata ATCC 36583” value came to 0.25 µg/mL. The “mean plasma histamine concentration relative to group 1” value in data set [9] (SD rats, 10 mg/kg i.v., 30 min after administration, p=0.046) is 4.5 times. Besides, in data set [9] (SD rats, 10 mg/kg single intravenous injection), the “time at which plasma histamine concentration peaked” value worked out at 30 min. Besides, in data set [9] (SD rats, 10 mg/kg single intravenous injection, 30 min after administration), the “mean histamine concentration in the plasma” value came to 1333.0 ng/mL. Moreover, the “MIC, Candida tropicalis ATCC 750” value in data set [10] worked out at 0.016 µg/mL. The “MIC, Candida tropicalis (amphotericin-resistant strain) ATCC 200956” value in [11] (second batch) came out at 0.25 µg/mL. For the same molecule, the “MIC, Candida krusei ATCC 6258” value in the data set on Candida krusei ATCC 6258 (setting [16]) is 0.25 µg/mL. Also, in data set [12] (setting [16]), the “MIC, Candida parapsilosis ATCC 22019” value amounted to 2 µg/mL.

The term Cmax denotes the highest concentration seen after dosing.
